Results published in US4443459A, “α-Tocopheryl ester of 5-substituted picolinic acid and hypotensive composition containing it” (Banyu Pharmaceutical Co., Ltd., priority 1981, dated 1984).

Experiments:
in vivo = conditions: mouse
Method: (§1) ddY-Strain female mice (body weight about 20 g), five per group, were used and each of the test compounds was orally or intraperitoneally administered, and two days after the administration, the number of dead mice was counted. From it, the acute toxicity LD50 of each of the compounds was determined by the Behrens-Kraerber method.

stomach of rats = assay: Side-effects: gastric trouble after oral administration for 4 consecutive days; type: in vivo, rat; conditions: 100 mg/kg
Method: dl-α-Tocopheryl 5-butylpicolinate of the invention and 5-butylpicolinic acid as a control were administered orally to rats for 4 consecutive days at a dose of 300 mg/kg (90.9 mg/kg calculated for 5-butylpicolinic acid) and 100 mg/kg. Then, the stomach of each rat was incised and observed for the occurrence of a gastric trouble.

[1] = tested on: Spontaneous hypertensive rats; assay: Hypotensive action in spontaneous hypertensive rats, oral (tail artery pressure, plethysmography; Table 1); type: in vivo, rat (spontaneous hypertensive, male)
From the text: (§2) dl-α-tocopheryl 5-butylpicolinate and dl-α-tocopherol were used after they were each dissolved in a suitable amount of ethyl ether, mixed with a solution containing 2% of Tween 80 and 2% of Span 40 and after removing ethyl ether, uniformly emulsified. 5-Butylpicolinic acid was used as a solution in 2% Tween 80+2% Span.
(§3) Spontaneous hypertensive rats (male, body weight 350 to 370 g) and Wistar rats with a normal blood pressure level (female, body weight 250 to270 g), three per group, were used. Without anesthesia, the pressure of the tail artery was measured by plethysmography.

Normotensive Wistar rats = assay: Hypotensive action in normotensive Wistar rats, oral (tail artery pressure, plethysmography; Table 2); type: in vivo, rat (Wistar, female); conditions: for Blood pressure lowering rate, 1h / Blood pressure lowering rate, 2h / Blood pressure lowering rate, 3h / Blood pressure lowering rate, 4h: normotensive Wistar rats
From the text: as §2, §3

ddY-Strain female mice = assay: in vivo; conditions: mouse, 4000 mg/kg
Method: as §1

[2] = 3.125 mg/kg oral, spontaneous hypertensive rats
[3] = 12.5 mg/kg oral, spontaneous hypertensive rats
[4] = 9.375 mg/kg oral, spontaneous hypertensive rats
[5] = 37.5 mg/kg oral, spontaneous hypertensive rats

## CCCCc1ccc(C(=O)O)nc1 [B, 5-butylpicolinic acid, reference compound]
In vivo; ip
  LD50 at 48 h: 89 mg/kg
In vivo; po
  LD50 at 48 h: 180 mg/kg
Stomach of rats
  occurrence of gastric trouble: Light degrees of edema, congestion, or bleeding were noted in the stomachs of all cases (five rats)
[1]; [2]
  Blood pressure lowering rate, 1h: 16.9%
  Blood pressure lowering rate, 2h: 0.7%
  Blood pressure lowering rate, 3h: 0%
  Blood pressure lowering rate, 4h: 0%
[1]; [3]
  Blood pressure lowering rate, 1h: 35.7%
  Blood pressure lowering rate, 2h: 21.7%
  Blood pressure lowering rate, 3h: 11.8%
  Blood pressure lowering rate, 4h: 0%
Normotensive Wistar rats; 50 mg/kg oral
  Blood pressure lowering rate, 1h: 27.0%
  Blood pressure lowering rate, 2h: 33.5%
  Blood pressure lowering rate, 3h: 26.2%
  Blood pressure lowering rate, 4h: 0%

## CCCCc1ccc(C(=O)Oc2c(C)c(C)c3c(c2C)CCC(C)(CCCC(C)CCCC(C)CCCC(C)C)O3)nc1 (racemic) [Example 1, dl-α-tocopheryl 5-butylpicolinate]
In vivo; ip, acute toxicity LD50, intraperitoneally administered, calculated for 5-butylpicolinic acid, intraperitoneal, mice
  LD50 at 48 h: > 1210 mg/kg
In vivo; ip, acute toxicity LD50, intraperitoneally administered, intraperitoneal, mice, two days after administration
  LD50 at 48 h: > 4000 mg/kg
In vivo; po, acute toxicity LD50, orally administered, calculated for 5-butylpicolinic acid, mice
  LD50 at 48 h: > 1210 mg/kg
In vivo; po, acute toxicity LD50, orally administered, oral, mice, two days after administration
  LD50 at 48 h: > 4000 mg/kg
ddY-Strain female mice
  deaths: no case of death was noted
[1]; [4]
  Blood pressure lowering rate, 1h: 20.3%
  Blood pressure lowering rate, 2h: 3.2%
  Blood pressure lowering rate, 3h: 0%
  Blood pressure lowering rate, 4h: 0%
[1]; [5]
  Blood pressure lowering rate, 1h: 29.0%
  Blood pressure lowering rate, 2h: 18.3%
  Blood pressure lowering rate, 3h: 13.0%
  Blood pressure lowering rate, 4h: 0%
[1]; conclusion from hypertensive vs normotensive rats
  selectivity of hypotensive action for hypertension (in words): more selective for hypertension than 5-butylpicolinic acid
[1]; spontaneous hypertensive rats, oral, vs 5-butylpicolinic acid or its mixture with dl-α-tocopherol
  hypotensive action (in words): strong hypotensive action on spontaneous hypertensive rats substantially equivalent to 5-butylpicolinicacid or a mixture of it with dl-α-tocopherol
Normotensive Wistar rats; 150 mg/kg oral
  Blood pressure lowering rate, 1h: 2.4%
  Blood pressure lowering rate, 2h: 18.3%
  Blood pressure lowering rate, 3h: 8.7%
  Blood pressure lowering rate, 4h: 0%
Normotensive Wistar rats; normotensive rats, oral, vs 5-butylpicolinic acid
  blood pressure lowering effect (in words): weaker both in strength and duration than that of 5-butylpicolinic acid
